In ChEMBL document CHEMBL2074430, “Transient expression of oatp organic anion transporter in mammalian cells: identification of candidate substrates” (Am J Physiol, 1996) one finds Activity data, which are given here for six molecules.

Holding throughout (type): functional, cell-based
Holding throughout (settings): human

The target in data set [1] is T1, Solute carrier organic anion transporter family member 1A1 (Rattus norvegicus, UniProt P46720).
T1 sequence (P46720 whole entry): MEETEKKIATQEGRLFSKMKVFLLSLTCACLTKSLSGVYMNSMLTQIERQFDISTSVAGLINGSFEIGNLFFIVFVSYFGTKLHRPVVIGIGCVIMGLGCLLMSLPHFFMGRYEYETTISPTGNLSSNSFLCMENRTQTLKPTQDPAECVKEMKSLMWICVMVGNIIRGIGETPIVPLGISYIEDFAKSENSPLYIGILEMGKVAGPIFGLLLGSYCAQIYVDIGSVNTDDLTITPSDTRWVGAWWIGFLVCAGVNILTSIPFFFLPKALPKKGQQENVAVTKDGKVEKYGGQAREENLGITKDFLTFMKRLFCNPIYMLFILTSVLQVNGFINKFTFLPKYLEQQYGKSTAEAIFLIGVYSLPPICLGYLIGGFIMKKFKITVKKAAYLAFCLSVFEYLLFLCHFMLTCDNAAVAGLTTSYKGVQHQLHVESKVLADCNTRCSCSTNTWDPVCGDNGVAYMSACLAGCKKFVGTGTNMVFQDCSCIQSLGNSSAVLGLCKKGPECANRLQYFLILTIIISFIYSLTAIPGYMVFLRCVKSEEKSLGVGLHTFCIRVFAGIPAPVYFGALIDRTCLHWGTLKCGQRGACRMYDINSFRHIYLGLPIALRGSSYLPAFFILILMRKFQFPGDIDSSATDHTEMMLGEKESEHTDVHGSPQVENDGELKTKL
In words: TP_TRANSPORTER: inhibition of BSP uptake (BSP: 1 uM, Aldosterone: 100 uM) in Oatp1-expressing HeLa cells.

Data set [2] has as its target T1, Solute carrier organic anion transporter family member 1A1. Kind of data set: TP_TRANSPORTER: uptake in Oatp1-expressing HeLa cells.
The target is the same in data set [3]. Kind of data set: TP_TRANSPORTER: inhibition of BSP uptake (BSP: 1 uM, Corticosterone: 100 uM) in Oatp1-expressing HeLa cells.
Data set [4] shares this target. Kind of data set: TP_TRANSPORTER: inhibition of BSP uptake (BSP: 1 uM, Hydrocortisone: 100 uM) in Oatp1-expressing HeLa cells.
For data set [5] the target is unchanged. Kind of data set: TP_TRANSPORTER: inhibition of BSP uptake (BSP: 1 uM, Spironolactone: 100 uM) in Oatp1-expressing HeLa cells.

`C[C@]12CCC(=O)C=C1CC[C@@H]1[C@@H]2[C@@H](O)C[C@]2(C=O)[C@@H](C(=O)CO)CC[C@@H]12` [ALDOSTERONE]: the Activity entry in data set [1] is “inhibitor [(at a rough estimate) 20 % of control]”.

For `Nc1ccc(C(=O)NCC(=O)O)cc1` [AMINOHIPPURIC ACID], in data set [2], the Activity result was “is not a substrate [-]”.

With `C[C@]12C[C@H](O)[C@H]3[C@@H](CCC4=CC(=O)CC[C@@]43C)[C@@H]1CC[C@@H]2C(=O)CO` [CORTICOSTERONE], the Activity result in data set [3] was “inhibitor [(at a rough estimate) 15 % of control]”.

Take `CCCCC[C@H](O)/C=C/[C@H]1[C@H](O)CC(=O)[C@@H]1C/C=C\CCCC(=O)O` [DINOPROSTONE]: in data set [2], the Activity entry was “is not a substrate [-]”.

Take `C[C@]12CCC(=O)C=C1CC[C@@H]1[C@@H]2[C@@H](O)C[C@@]2(C)[C@H]1CC[C@]2(O)C(=O)CO` [HYDROCORTISONE]: the Activity entry in data set [4] was “inhibitor [(at a rough estimate) 30 % of control]”.

Consider `CC(=O)S[C@@H]1CC2=CC(=O)CC[C@]2(C)[C@H]2CC[C@@]3(C)[C@@H](CC[C@@]34CCC(=O)O4)[C@H]12` [SPIRONOLACTONE], for which the Activity result in data set [5] was “inhibitor [(at a rough estimate) 10 % of control]”.
